The text below walks through data of patent publication US12692232B2, “Indole carboxamide compound, preparation therefor and use thereof” (NANJING RUISHUNING MEDICAL TECHNOLOGY CO., LTD., priority 2021, dated 2026).

As usually defined, the pKd is the Kd on a negative log10 scale, so that one unit is a factor of ten. The low end stands for a high Kd, the high end for a low Kd.

For assay [1], the target named is TRPC1 protein (Homo sapiens, UniProt P48995). Nature of the assay: MST binding to TRPC1 protein. The note with it: for pKd: MST; for affinity strength to TRPC6 protein higher than to TRPC1 protein: MST Kd ratio. The protocol: (§1) Preparation and labelling of protein solution: TRPC6 protein dry powder (Alomone Labs, Israel) was prepared into a protein mother solution at a concentration of 10 μM using PBS-Buffer, and 35 μL of the protein stock solution was taken to the Buffer exchange A column, and centrifuged to obtain the Tris-removed protein. 34 μL Labelling Buffer was added to the Tris-removed protein according to the instructions of the Protein Fluorescent Labelling Kit (model L001). After mixing well, 3 μL of NT-647-NHS fluorescent dye was added and thus obtained mixture was incubated for 20 minutes. The protein-dye mixture was transferred to the purification B column, 300 μL of PBS-Buffer was added, and the target protein, i.e. fluorescent labelled protein TRPC6, was collected by centrifugation (with a final concentration of about 2 μM). 180 μL of target protein was mixed with 1620 μL of PBS-Buffer, and then 9 μl of Tween-20 were added thereto. Thus the resulting mixture was mixed and then centrifuged to obtain the target protein solution.
(§2) Preparation of compound solutions: the compounds were prepared separately with DMSO to storage solutions with a concentration of […]. 10 μL of each storage solution was placed in a […] EP tube, 90 μL of PBS was added thereto and the resulting mixture was thoroughly mixed to prepare 100 μL of working solution at a concentration of 1 μM for later use. Ligand gradient dilutions were made for a total of 16 concentrations, and 10 μL of 10% DMSO-Buffer was added to each of the 15 gradients except gradient 1, followed by the addition of 10 μL of ligand working solution to gradients 1 and 2, respectively. The liquid in tube 2 was mixed and then 10 μL therein was taken into tube 3, and dilution was carried out in this manner until tube 16. Tube 16 was mixed and 10 μL therein was taken and discarded, and the remainder was kept for later use.
(§3) Detection and analysis: 10 μL of protein solution was added to the 16 compound gradient dilutions respectively and mixed, and the resultant mixtures were transferred to capillary tubes sequentially to start detection on machine. After loading the data, the MST analysis model and Kd Model were selected to obtain the fitting curve and dissociation constant (Kd).
(§4) The binding ability of the compounds of the present invention (as exemplified by the compounds 1-1 and 2-1 obtained in Examples 1 and 3) for other TRPC proteins (e.g., TRPC1, TRPC3, TRPC4, TRPC5, and TRPC7) was determined using the microscale thermophoresis (MST) method. The method was as follows:
(§5) The affinity of the compounds of the present invention with TRPC1, TRPC3, TRPC4, TRPC5 and TRPC7 proteins, respectively, was determined by the same method as in Example 5.

For assay [2], the target named is T1, TRPC3 protein (Homo sapiens, UniProt Q13507).
T1 sequence (Q13507 1-921): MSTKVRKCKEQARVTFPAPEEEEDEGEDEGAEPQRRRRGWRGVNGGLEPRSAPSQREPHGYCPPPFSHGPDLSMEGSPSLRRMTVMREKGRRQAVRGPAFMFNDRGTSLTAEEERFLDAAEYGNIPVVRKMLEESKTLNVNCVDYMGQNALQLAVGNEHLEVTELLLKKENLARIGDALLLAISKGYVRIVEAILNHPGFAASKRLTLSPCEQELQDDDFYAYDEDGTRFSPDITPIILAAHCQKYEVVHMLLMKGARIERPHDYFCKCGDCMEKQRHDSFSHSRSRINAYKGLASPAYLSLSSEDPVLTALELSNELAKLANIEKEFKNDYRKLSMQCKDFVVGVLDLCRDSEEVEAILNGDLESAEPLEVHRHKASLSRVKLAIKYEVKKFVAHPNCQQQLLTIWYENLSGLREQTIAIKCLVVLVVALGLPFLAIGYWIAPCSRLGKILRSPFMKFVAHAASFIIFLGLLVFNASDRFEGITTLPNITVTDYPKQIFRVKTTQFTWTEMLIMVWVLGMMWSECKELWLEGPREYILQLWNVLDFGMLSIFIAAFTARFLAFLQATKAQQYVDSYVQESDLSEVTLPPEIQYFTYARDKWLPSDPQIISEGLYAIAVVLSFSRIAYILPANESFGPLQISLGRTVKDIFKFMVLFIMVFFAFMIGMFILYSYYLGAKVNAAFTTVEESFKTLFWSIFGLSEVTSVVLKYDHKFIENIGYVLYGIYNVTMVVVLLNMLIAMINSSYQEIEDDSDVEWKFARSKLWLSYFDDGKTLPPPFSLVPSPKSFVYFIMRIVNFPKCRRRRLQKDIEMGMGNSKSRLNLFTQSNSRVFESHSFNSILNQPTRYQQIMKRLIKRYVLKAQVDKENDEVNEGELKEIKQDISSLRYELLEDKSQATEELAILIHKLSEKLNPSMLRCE
In words: MST binding to TRPC3 protein. The conditions noted are these: for affinity strength to TRPC6 protein higher than to TRPC3 protein: MST Kd ratio. The protocol:
as §1, §2, §3, §4, §5

For assay [3], the system named is lipopolysaccharide (LPS)-induced mouse model of sepsis. Nature of the assay: LPS-induced mouse model of sepsis, survival analysis. The assay is classed as in vivo. The note with it: for average survival time: LPS 40 mg/kg i.p., LPS group 15.4±2.9; for time after which the mice began to die: LPS 40 mg/kg i.p. 30 minutes later, LPS group about 12 hours. The protocol:
A lipopolysaccharide (LPS)-induced mouse model of sepsis was used to determine the preventive and therapeutic effect of the compounds of the present invention (as exemplified by compounds 1-1 and 2-1 obtained in Examples 1 and 3) against sepsis. The method was as follows:
Experimental animals: 60 male C57BL/6J mice aged 6-8 weeks. The experimental animals were housed in an environment with room temperature of 25±2° C., 12 hours dark/12 hours light, and fed with conventional feed.
Survival analysis experiment: the mice were randomly divided into 6 groups of 10 mice each, namely, i) a solvent control group: each animal was administered 0.9% saline; ii) a sepsis model group (LPS group): each animal was injected intraperitoneally with LPS at a dose of 40 mg/kg; iii) a treatment group of medium-dose compound 1-1 (LPS+25 mg/kg of compound 1-1 obtained in Example 1): each animal was administered compound 1-1 by gavage at a dose of 25 mg/kg, followed by intraperitoneal injection of LPS at a dose of 40 mg/kg 30 minutes later; iv) a treatment group of high-dose compound 1-1 (LPS+50 mg/kg of compound 1-1 obtained in Example 1): each animal was administered compound 1-1 by gavage at a dose of 50 mg/kg, followed by intraperitoneal injection of LPS at a dose of 40 mg/kg 30 minutes later; v) a treatment group of high-dose compound 2-1 (LPS+50 mg/kg compound 2-1 obtained in Example 2): each animal was administered compound 2-1 by gavage at a dose of 50 mg/kg, followed by intraperitoneal injection of LPS at a dose of 40 mg/kg 30 minutes later; vi) a treatment group of medium-dose indole analogue 3-[(1-methyl-1H-indole-2-carbonyl)amino]propionic acid disclosed in CN2019107285315 (LPS+25 mg/kg of indole analogue 3-[(1-methyl-1H-indole-2-carbonyl)amino]propionic acid disclosed in CN2019107285315). The survival of the mice in each group was monitored, the time of death of the mice was recorded, and the average survival time of the animals in each group was calculated.

pKd: −log10 of the molar value.

Chain of TRPC1 protein (P48995 whole entry, species assumed): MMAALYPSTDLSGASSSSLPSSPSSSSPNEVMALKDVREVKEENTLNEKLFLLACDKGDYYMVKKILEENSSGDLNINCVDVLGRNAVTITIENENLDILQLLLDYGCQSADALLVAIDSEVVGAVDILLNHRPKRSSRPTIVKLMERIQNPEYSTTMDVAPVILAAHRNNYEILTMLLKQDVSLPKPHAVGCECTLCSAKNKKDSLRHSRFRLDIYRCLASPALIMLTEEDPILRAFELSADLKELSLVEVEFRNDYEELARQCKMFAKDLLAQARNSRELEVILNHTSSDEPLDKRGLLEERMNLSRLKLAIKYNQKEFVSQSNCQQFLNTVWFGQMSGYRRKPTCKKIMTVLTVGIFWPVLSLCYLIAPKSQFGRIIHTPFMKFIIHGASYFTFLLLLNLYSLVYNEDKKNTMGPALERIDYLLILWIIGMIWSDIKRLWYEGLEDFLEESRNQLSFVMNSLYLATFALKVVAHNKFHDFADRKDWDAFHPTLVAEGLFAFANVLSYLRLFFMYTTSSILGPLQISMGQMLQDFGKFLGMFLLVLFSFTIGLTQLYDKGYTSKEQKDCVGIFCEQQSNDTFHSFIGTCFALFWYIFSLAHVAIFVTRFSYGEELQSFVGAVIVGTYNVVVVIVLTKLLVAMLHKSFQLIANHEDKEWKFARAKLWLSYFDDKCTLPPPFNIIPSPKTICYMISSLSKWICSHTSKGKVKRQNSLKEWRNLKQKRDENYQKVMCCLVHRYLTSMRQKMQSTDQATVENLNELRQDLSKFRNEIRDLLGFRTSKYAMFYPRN

On to `Cn1c(C(=O)NCCC(=O)O)cc2ccccc21` [3-[(1-methyl-1H-indole-2-carbonyl)amino]propionic acid, reference compound], for which, in assay [1], the pKd is 5.71 and the “affinity strength to TRPC6 protein higher than to TRPC1 protein” value (shortened to “affinity strength … to TRPC1 protein”) turned out to be 65 fold. In assay [2], the “affinity strength to TRPC6 protein higher than to TRPC3 protein” value (“affinity strength … to TRPC3 protein” below) stood at 27 fold. Also, in assay [3] (25 mg/kg), the average survival time turned out to be 19.8 ± 3.1 h.

For `CC(=O)OCCCNC(=O)c1c(C=O)c2ccccc2n1C` [compound 1-1, propyl 3-[(3-formyl-1-methyl-1H-indole-2-carbonyl)amino]acetate], in assay [1], the pKd is 5.53 and the “affinity strength … to TRPC1 protein” value is 245 fold. Also, in assay [2], the “affinity strength … to TRPC3 protein” value was 81 fold. In assay [3] (25 mg/kg), the “time after which the mice began to die” value came to 20 h and the average survival time was 24.8 ± 3.9 h. Besides, in assay [3] (50 mg/kg), the “time after which the mice began to die” value came out at 28 h and the average survival time amounted to 26.4 ± 4.3 h.

As to `Cn1c(C(=O)NCCCOC(=O)c2ccccc2)c(C=O)c2ccccc21` [compound 2-1], in assay [1], the negative logarithm of the Kd (pKd) was 5.62 and the “affinity strength … to TRPC1 protein” value was determined as 155 fold. In assay [2] (MST), the pKd was 5.85. In assay [2], the “affinity strength … to TRPC3 protein” value was 51 fold. Further, in assay [3] (50 mg/kg), the “time after which the mice began to die” value is 22 h and the average survival time was found to be 24.2 ± 4.9 h.
